# Reference: patent US5686458A, “Quinazoline deriviates for treating peptic ulcer” (Yuhan Corporation, priority 1992, dated 1997)
# Structures can show the parent of a compound that is named as a salt.
# Columns and labels:
# gastric secretion = experiment: Inhibition of Gastric Secretion, pylorus-ligated rats (Experiment 2); format: in vivo, Sprague-Dawley rats; conditions: relative to omeprazole (equation III), 20 mg/kg intraduodenally, pylorus-ligated rats, 5 hours
# Procedure: In accordance with the method disclosed in Shay, H., et al., Gastroenterology 5, 43-61(1945), Experiment 2 was carried out.
# Sprague-Dawley rats having a body weight of 170±10 g were divided into 3 groups(n=5) and deprived of food for 24 hours before the experiment with free access to water. Under ether anesthesia, the abdomen was incised, and the pylorus was ligated. As a comparative group, Group 1 was administered intraduodenally in a volume of 0.5 ml/200 g of 30% aqueous polyethylene glycol 400 solution. Groups 2 and 3 were administered intraduodenally with the compound of Example 34 and omeprazole, respectively, each of which was suspended in 30% aqueous polyethylene glycol 400 solution at a concentration of 20 mg/kg. After closing the abdominal cavity, the rats were placed for 5 hours and then killed by cervical dislocation. The stomach was extracted to obtain gastric juice.
# The gastric juice was centrifuged at 1,000 g to remove precipitates. The amount and acidity of the gastric juice were measured. Relative volumes, relative acid concentrations and relative acid outputs of the test compounds were calculated from equations(I), (II) and (III) and the results are shown in Table 2.
# (I) = the average amount of gastric juice of Group 1 - the
# average amount of gastric juice of Group 2)/(the average
# amount of gastric juice of Group 1 - the average amount
# of gastric juice of Group 3)
# Relative acid concentration
# (II) = (the average acidity of Group 1 - the average
# acidity of Group 2)/(the average acidity of Group 1 - the average
# (III) = (the total amount of acid output of Group 1 - the
# total amount of acid output of Group 2)/(the total amount of acid
# output of Group 1 - the total amount of acid output of Group
# [1] = biological target: T1, Proton Pump (H^+ /K^+ ATPase) (Oryctolagus cuniculus, UniProt P27112); experiment: Inhibition of Proton Pump (H+/K+ ATPase) Activity, in vitro enzyme reaction (Experiment 1); format: biochemical, New Zealand white rabbit; conditions: for Effect ratio: IC50 of Omeprazole / IC50 of test compound; for IC50: K+-stimulated H+/K+ ATPase activity, rabbit gastric microsomes, pH 7.2, 37° C., 15 min prereaction, 30 min reaction, read-out: IC50 of test compound, inhibition (50%) of the proton pump activity
# T1 construct: The microsomes thus obtained were used as an enzyme source of the in vitro enzyme reaction study of proton pump; from tissue; host or cells: rabbit stomach, mucosal scrapings, microsomes (180,000 g pellet)
# T1 sequence (P27112 whole entry): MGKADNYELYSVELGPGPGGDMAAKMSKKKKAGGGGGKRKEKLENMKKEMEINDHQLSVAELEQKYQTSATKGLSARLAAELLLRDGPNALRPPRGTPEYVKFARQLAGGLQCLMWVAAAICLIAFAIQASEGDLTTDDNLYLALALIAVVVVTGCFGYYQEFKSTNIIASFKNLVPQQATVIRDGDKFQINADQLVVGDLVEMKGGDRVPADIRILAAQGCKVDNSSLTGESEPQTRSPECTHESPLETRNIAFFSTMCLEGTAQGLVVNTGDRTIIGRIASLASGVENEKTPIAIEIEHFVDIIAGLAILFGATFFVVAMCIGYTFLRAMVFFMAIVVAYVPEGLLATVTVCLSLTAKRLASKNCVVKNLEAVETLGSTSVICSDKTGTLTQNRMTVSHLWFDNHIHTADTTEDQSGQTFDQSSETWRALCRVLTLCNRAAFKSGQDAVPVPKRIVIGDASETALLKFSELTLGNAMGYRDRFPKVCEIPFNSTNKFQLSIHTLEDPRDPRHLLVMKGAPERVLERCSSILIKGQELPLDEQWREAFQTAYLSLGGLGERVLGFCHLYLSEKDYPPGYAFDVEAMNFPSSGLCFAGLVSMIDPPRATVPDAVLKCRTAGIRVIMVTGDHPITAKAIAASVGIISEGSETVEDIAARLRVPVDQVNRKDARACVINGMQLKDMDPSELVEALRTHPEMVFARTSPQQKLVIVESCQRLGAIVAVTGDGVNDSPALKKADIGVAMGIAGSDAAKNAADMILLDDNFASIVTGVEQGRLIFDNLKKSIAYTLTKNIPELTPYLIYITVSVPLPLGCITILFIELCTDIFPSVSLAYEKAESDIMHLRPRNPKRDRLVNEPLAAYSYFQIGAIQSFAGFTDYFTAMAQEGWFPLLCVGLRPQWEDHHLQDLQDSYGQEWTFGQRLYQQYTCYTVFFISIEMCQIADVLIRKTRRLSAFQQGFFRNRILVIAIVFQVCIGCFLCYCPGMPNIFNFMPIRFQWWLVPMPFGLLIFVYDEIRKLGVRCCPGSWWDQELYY
# T1 sequence (P18597 whole entry partner): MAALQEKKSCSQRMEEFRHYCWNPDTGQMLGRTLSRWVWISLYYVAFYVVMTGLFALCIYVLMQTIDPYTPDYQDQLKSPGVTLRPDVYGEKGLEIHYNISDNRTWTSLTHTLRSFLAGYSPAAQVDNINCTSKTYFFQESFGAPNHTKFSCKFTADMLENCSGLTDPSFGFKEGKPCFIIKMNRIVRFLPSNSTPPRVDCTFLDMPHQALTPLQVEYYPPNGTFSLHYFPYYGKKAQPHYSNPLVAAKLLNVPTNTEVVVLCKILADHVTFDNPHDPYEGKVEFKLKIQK
# Procedure: A New Zealand white rabbit was killed by blowing its head and the stomach was taken out. The contents of the stomach were removed and the stomach walls were washed with was saline. The inner wall of the stomach was scratched out with a slide glass and the cells thus obtained were homogenized in 0.25M sucrose buffer by means of a Teflon-glass homogenizer. The homogenous solution was centrifuged at 10,000 g for 10 minutes and the supernatant was further centrifuged at 20,000 g for 20 minutes. The supernatant thus obtained was centrifuged at an ultra-high speed of 180,000 g for 1 hour. The pellets precipitated were collected by discarding the supernatant and suspended in 50 mM Tris-HCl buffer having pH 7.2. The suspension was dialyzed twice with the same buffer(of 1,000 times volume) for 3 hours and stored into liquid nitrogen.
# The above centrifugation and dialysis were carried out at 4° C. The microsomes thus obtained were used as an enzyme source of the in vitro enzyme reaction study of proton pump.
# The inhibitory effects of proton pump activity by the compounds of the present invention were measured by the in vitro enzyme reaction study. The proton pump activity stimulated by Mg^++ was used as a negative comparative group, and the activity stimulated by Mg^++ and K^+ was used as a positive comparative group. The comparative compound was omeprazole.
# Test tubes were divided into 4 groups: Group 1 as negative comparative group(n=3), Group 2 as positive comparative group(n=3), Group 3(n=5) to be administered with the compound of the present invention and Group 4(n=5) to be administered with the comparative compound. The inhibitory effects of proton pump activity of Groups 3 and 4 were measured by employing the compound prepared in Example 34 and omeprazole, respectively, each of which was dissolved in dimethylsulfoxide at 5 different concentrations.
# To each of Groups 1, 2, 3 and 4, were added 0.1 ml of magnesium chloride(40 mM) dissolved in 50 mM Tris-HCl buffer (pH 7.2) and […] of the enzyme source prepared in Experiment 1-1. Then, 0.1 ml of potassium chloride(500 mM) and 0.1 ml of ammonium chloride(100 mM) dissolved in 50 mM Tris-HCl buffer(pH 7.2) were added to all groups except for Group 1.
# 0.1 ml of dimethylsulfoxide was added to each of Groups 1 and 2; and to Group 3 was added 0.01 ml of the solution in which the compound prepared in Example 34 was dissolved in dimethylsulfoxide at 5 different concentrations. To Group 4, 0.01 ml of the solution prepared by dissolving omprazole in dimethylsulfoxide at 5 different concentrations(37.6, 21.4, 12.2, 7.0 and 4.0 μM) was added. 50 mM Tris-HCl buffer was added thereto so as to make the total volume 0.4 ml.
# Thereafter, the test tubes of each Group were placed at 37° C. for 15 minutes for the prereaction. 0.1 ml of ATP solution(33.3 mM), which was prepared by adding Tris-ATP 50 mM to Tris-HCl buffer having pH 7.2, was added until the reaction volume became 0.5 ml. The final concentrations of MgCl2, KCl, NH4 Cl, ATP, enzyme and Tris-HCl were 8 mM, 100 mM, 20 mM, 6.7 mM, 100μg/ml and 50 mM, respectively. After the reaction was carried out at 37° C. for 30 minutes, 25% cold trichloroacetic acid was added to terminate the enzyme reaction. The released inorganic phosphate was measured by an automatic analyzer(SBA 300, Gilford).
# The difference between Group 1 and Group 2 represents the proton pump activity activated by K^+ only. The inhibition percentages of Groups 3 and 4 were calculated from Litchfield-wilcoxon equation[see J. Pharmacol. Exptl. Ther. 96, 99(1949)]. The concentrations of the test compounds which inhibit 50% of the proton pump activity are represented as IC50 in Table 1.
SMILES,Relative Acid Output (gastric secretion),Effect ratio [1],IC50 [1] [µM]
"CC1c2ccccc2CCN1c1nc(Nc2ccc(F)cc2)nc2ccccc12.Cl (stereo not drawn) [Example 25, 2-(4-Fluorophenylamino)-4-(1-Methyl-1,2,3,4-Tetrahydroisoquinoline-2-Yl)Quinazoline Hydrochloride]",0.50,5.88,2.7
"COc1cccc2c(N3CCc4ccccc4C3C)nc(N(C)c3ccc(F)cc3)nc12.Cl (stereo not drawn) [Example 41, 8-Methoxy-2-(4-Fluoro-N-methyl-Phenylamino)-4-(1-Methyl-1,2,3,4-Tetrahydroisoquinoline-2-Yl)Quinazoline Hydrochloride]",0.48,2.00,3.8
"COc1cccc2c(N3Cc4ccccc4CC3C)nc(Nc3ccc(F)cc3)nc12.Cl (stereo not drawn) [Example 48, 2-(4-Fluorophenylamino)-8-Methoxy-4-(3-Methyl-1,2,3,4-Tetrahydroisoquinoline-2-Yl) Quinazoline Hydrochloride]",0.76,~ 0.25,~25
"CCC1c2ccccc2CCN1c1nc(Nc2ccc(F)cc2C)nc2c(OC)cccc12.Cl (stereo not drawn) [Example 46, 8-Methoxy-2-(2-Methyl-4-Fluoro-Phenylamino)-4-(1-Ethyl-1,2,3,4-Tetrahydroisoquinoline-2-Yl)Quinazoline Hydrochloride]",0.11,0.68,~6
"COc1cccc2c(N3CCc4ccccc4C3(C)C)nc(Nc3ccc(F)cc3)nc12.Cl [Example 50, 2-(4-Fluorophenylamino)-8-Methoxy-4-(1,1-Dimethyl-1,2,3,4-Tetrahydroisoquinoline-2-Yl)Quinazoline Hydrochloride]",0.82,1.22,6.05
"COc1cccc2c(N3CCc4ccccc4[C@H]3C)nc(Nc3ccc(F)cc3C)nc12.Cl [Example 35, (R)-8-Methoxy-2-(4-Fluoro-2-Methylphenylamino)-4-(1-Methyl-1,2,3,4-Tetrahydroisoquinoline-2-Yl)Quinazoline Hydrochloride]",0.79,2.83,1.8
"COc1cccc2c(N3Cc4ccccc4CC3C)nc(Nc3ccc(F)cc3C)nc12.Cl (stereo not drawn) [Example 49, 2-(4-Fluoro-2-Methylphenyl-Amino)-8-Methoxy-4-(3-Methyl-1,2,3,4-Tetrahydroisoquinoline-2-Yl)Quinazoline Hydrochloride]",0.42,> 0.25,> 25
"COc1cccc2c(N3CCc4ccccc4C3C)nc(Nc3ccc(F)cc3C)nc12.CS(=O)(=O)O (stereo not drawn) [Example 60, 2-(4-Fluoro-2-MethylPhenyl-Amino)-8-Methoxy-4-(1-Methyl-1,2,3,4-Tetrahydroisoquinoline-2-Yl)Quinazoline Methanesulfonate]",0.84,5.20,1.8
"COc1cccc2c(N3CCc4ccccc4C3C)nc(Nc3ccc(F)cc3)nc12.Cl (stereo not drawn) [Example 33, 8-Methoxy-2-(4-Fluorophenyl-Amino)-4-(1-Methyl-1,2,3,4-Tetrahydroisoquinoline-2-Yl) Quinazoline Hydrochloride]",0.79,1.22,2.3
"CN(c1ccccc1)c1nc(N2CCc3ccccc3C2)c2ccccc2n1 [Example 19, 2-(N-Methylphenylamino)-4-(1,2,3,4-Tetrahydroisoquinoline-2-Yl)QuinazolineHydrochloride]",0.68,1.83,5.2
"COc1cccc2c(N3CCc4cccc5c4C3CC5)nc(Nc3ccc(F)cc3)nc12.Cl (stereo not drawn) [Example 58, 8-Methoxy-2-(4-Fluorophenyl-Amino)-4-(1,8-Ethano-1,2,3,4-Tetrahydroisoquinoline-2-Yl)Quinazoline Hydrochloride]",0.94,0.65,13.6
"Cc1cc(F)ccc1Nc1nc(N2CCc3cccc4c3C2CC4)c2ccccc2n1.Cl (stereo not drawn) [Example 27, 2-(4-Fluoro-2-Methylphenyl-Amino)-4-(1,8-Ethano-1,2,3,4-Tetrahydroisoquinoline-2-Yl) Quinazoline Hydrochloride]",0.30,1.97,2.9
"COc1cccc2c(N3CC(C)c4ccccc4C3C)nc(Nc3ccc(F)cc3C)nc12.Cl (stereo not drawn) [Example 57, 2-(4-fluoro-2-Methylphenyl-Amino)-8-Methoxy-4-(1,4-Dimethyl-1,2,3,4-Tetrahydroisoquinoline-2-Yl) Quinazoline Hydrochloride]",0.67,1.04,7.18
"CSCOc1cccc2c(N3CCc4ccccc4C3C)nc(Nc3ccc(F)cc3C)nc12 (stereo not drawn) [Example 39, 2-(4-Fluoro-2-Methylphenyl-Amino-8-(Methylthiomethyloxy)-4-(1-Methyl-1,2,3,4-Tetrahydroisoquinoline-2-Yl)Quinazoline Hydrochloride]",0.57,0.70,4
"CCOc1cccc2c(N3CCc4ccccc4C3C)nc(Nc3ccc(F)cc3C)nc12.Cl (stereo not drawn) [Example 38, 2-(4-Fluoro-2-Methylphenyl-Amino)-8-Ethoxy-4-(1-Methyl-1,2,3,4-Tetrahydroisoquinoline-2-Yl)Quinazoline Hydrochloride]",0.83,1.67,1.2
"Fc1ccc(Nc2nc(N3CCc4ccccc4C3)c3ccccc3n2)cc1 [Example 23, 2-(4-Fluorophenylamino)-4-(1,2,3,4-Tetrahydroisoquinoline-2-Yl)QuinazolineHydrochloride]",0.44,4.30,2
"COc1cccc2c(N3CCc4cc(C)ccc4C3C)nc(Nc3ccc(F)cc3C)nc12.Cl (stereo not drawn) [Example 55, 2-(4-Fluoro-2-Methylphenyl-Amino)-8-Methoxy-4-(1,6-Dimethyl-1,2,3,4-Tetrahydroisoquinoline-2-Yl)Quinazoline Hydrochloride]",0.50,~ 0.80,~10
